# Values joined by “and” are separate entries in the source; they are usually repeats but may differ in a detail not shown here. Equal values may be shown once. Read-outs that look alike come from different tables or passages of the source. Bridge positions count the residues as written; N and C are the ends. Square brackets hold non-standard residues; d marks the D form. Peptide text beside a SMILES is read from it. hArg = N=C(N)NCCCC[C@H](N)C(=O)O; Mpa = O=C(O)CCS
# Test system: washed mouse platelets
# Assay: Clot contraction assay, time-lapse imaging of washed mouse platelets with thrombin, fibrinogen and CaCl2
# Assay type: cell-based
# [1] = CaCl2 0.1 mM, thrombin 20 mU/mL, fibrinogen 250 μg/mL
# [2] = CaCl2 0.5 mM, thrombin 20 mU/mL, fibrinogen 250 μg/mL
# [3] = CaCl2 1 mM, thrombin 20 mU/mL, fibrinogen 250 μg/mL
# [4] = increased thrombin concentration, 10-200 mU/mL
# [5] = thrombin 10 mU/mL, CaCl2 0.5 mM, fibrinogen 250 μg/mL
# [6] = thrombin 20 mU/mL, CaCl2 0.5 mM, fibrinogen 250 μg/mL
# [7] = thrombin 30 mU/mL, CaCl2 0.5 mM, fibrinogen 250 μg/mL
# [8] = thrombin 50 mU/mL, CaCl2 0.5 mM, fibrinogen 250 μg/mL
# [9] = thrombin 100 mU/mL, CaCl2 0.5 mM, fibrinogen 250 μg/mL
# [10] = eptifibatide 50 μM, standard conditions
# [11] = eptifibatide 100 μM, standard conditions
# [12] = eptifibatide 150 μM, standard conditions
compound,measurement,setting,value
[Ca+2].[Cl-].[Cl-] [CaCl2],AUC,[1],3.78 AU
same,Average Velocity,[1],0.98 %/min
same,Clot Contraction Extent,[1],97.02%
same,Lag time,[1],15.00 min
same,PHASE 1 % Contraction,[1],2.91%
same,PHASE 1 Rate 1,[1],5.00 ×10^−3 %/min
same,PHASE 1 t1,[1],7.00 min
same,PHASE 2 % Contraction,[1],29.63%
same,PHASE 2 Rate 2,[1],1.51 %/min
same,PHASE 2 t2,[1],27.33 min
same,PHASE 3 % Contraction,[1],64.48%
same,PHASE 3 Rate 3,[1],1.51 ×10^−2 %/min
same,AUC,[2],3.93 AU
same,Average Velocity,[2],0.96 %/min
same,Clot Contraction Extent,[2],95.36%
same,Lag time,[2],15.67 min
same,PHASE 1 % Contraction,[2],3.27%
same,PHASE 1 Rate 1,[2],4.67 ×10^−3 %/min
same,PHASE 1 t1,[2],8.33 min
same,PHASE 2 % Contraction,[2],27.00%
same,PHASE 2 Rate 2,[2],1.43 %/min
same,PHASE 2 t2,[2],28.00 min
same,PHASE 3 % Contraction,[2],65.48%
same,PHASE 3 Rate 3,[2],1.43 ×10^−2 %/min
same,AUC,[3],3.69 AU
same,Average Velocity,[3],0.99 %/min
same,Clot Contraction Extent,[3],98.08%
same,Lag time,[3],17.67 min
same,PHASE 1 % Contraction,[3],5.50%
same,PHASE 1 Rate 1,[3],5.00 ×10^−3 %/min
same,PHASE 1 t1,[3],12.33 min
same,PHASE 2 % Contraction,[3],31.17%
same,PHASE 2 Rate 2,[3],1.87 %/min
same,PHASE 2 t2,[3],30.00 min
same,PHASE 3 % Contraction,[3],61.41%
same,PHASE 3 Rate 3,[3],1.87 ×10^−2 %/min
same,Differences in clot contraction,calcium between 0.1 and 1 mM,limited differences
Thrombin,Effect on extent of clot contraction,[4],remained unchanged
same,Effect on lag time,[4],decreased
same,Increase of Phase 1 (initiation) rate,over the thrombin concentration range tested,~5 fold
same,AUC,[5],5.62 AU
same,Average Velocity,[5],0.82 %/min
same,Clot Contraction Extent,[5],80.19%
same,Lag time,[5],28.33 min
same,PHASE 1 % Contraction,[5],4.93%
same,PHASE 1 Rate 1,[5],4.27 ×10^−3 %/min
same,PHASE 1 t1,[5],13.33 min
same,PHASE 2 % Contraction,[5],23.95%
same,PHASE 2 Rate 2,[5],1.02 %/min
same,PHASE 2 t2,[5],36.00 min
same,PHASE 3 % Contraction,[5],51.32%
same,PHASE 3 Rate 3,[5],3.93 ×10^−2 %/min
same,AUC,[6],4.90 AU
same,Average Velocity,[6],0.90 %/min
same,Clot Contraction Extent,[6],88.45%
same,Lag time,[6],19.33 min
same,PHASE 1 % Contraction,[6],4.66%
same,PHASE 1 Rate 1,[6],4.67 ×10^−3 %/min
same,PHASE 1 t1,[6],11.33 min
same,PHASE 2 % Contraction,[6],31.74%
same,PHASE 2 Rate 2,[6],1.33 %/min
same,PHASE 2 t2,[6],36.33 min
same,PHASE 3 % Contraction,[6],52.05%
same,PHASE 3 Rate 3,[6],3.63 ×10^−2 %/min
same,AUC,[7],4.10 AU
same,Average Velocity,[7],0.94 %/min
same,Clot Contraction Extent,[7],92.41%
same,Lag time,[7],15.33 min
same,PHASE 1 % Contraction,[7],6.03%
same,PHASE 1 Rate 1,[7],6.67 ×10^−3 %/min
same,PHASE 1 t1,[7],8.67 min
same,PHASE 2 % Contraction,[7],20.91%
same,PHASE 2 Rate 2,[7],1.67 %/min
same,PHASE 2 t2,[7],22.00 min
same,PHASE 3 % Contraction,[7],65.45%
same,PHASE 3 Rate 3,[7],2.70 ×10^−2 %/min
same,AUC,[8],3.69 AU
same,Average Velocity,[8],0.94 %/min
same,Clot Contraction Extent,[8],92.51%
same,Lag time,[8],10.67 min
same,PHASE 1 % Contraction,[8],6.96%
same,PHASE 1 Rate 1,[8],27.33 ×10^−3 %/min
same,PHASE 1 t1,[8],6.67 min
same,PHASE 2 % Contraction,[8],16.04%
same,PHASE 2 Rate 2,[8],1.97 %/min
same,PHASE 2 t2,[8],18.00 min
same,PHASE 3 % Contraction,[8],69.51%
same,PHASE 3 Rate 3,[8],3.10 ×10^−2 %/min
same,AUC,[9],3.32 AU
same,Average Velocity,[9],0.97 %/min
same,Clot Contraction Extent,[9],94.93%
same,Lag time,[9],9.00 min
same,PHASE 1 % Contraction,[9],6.55%
same,PHASE 1 Rate 1,[9],21.33 ×10^−3 %/min
same,PHASE 1 t1,[9],5.00 min
same,PHASE 2 % Contraction,[9],19.72%
same,PHASE 2 Rate 2,[9],2.02 %/min
same,PHASE 2 t2,[9],18.67 min
same,PHASE 3 % Contraction,[9],68.67%
same,PHASE 3 Rate 3,[9],3.43 ×10^−2 %/min
"N=C(N)NCCCC[C@@H]1NC(=O)CCSSC[C@@H](C(N)=O)NC(=O)[C@@H]2CCCN2C(=O)[C@H](Cc2c[nH]c3ccccc23)NC(=O)[C@H](CC(=O)O)NC(=O)CNC1=O [Eptifibatide, eptifibatide, reference compound] ([Mpa][hArg]GDWPC-NH2; disulfide 1-7)",AUC,,5.51 AU and 6.76 AU and 6.84 AU
same,Average Velocity,[10],0.91 %/min
same,Clot Contraction Extent,[10],89.56%
same,Lag time,[10],29.33 min
same,PHASE 1 % Contraction,[10],5.36%
same,PHASE 1 Rate 1,[10],3.93 ×10^−3 %/min
same,PHASE 1 t1,[10],14.33 min
same,PHASE 2 % Contraction,[10],32.14%
same,PHASE 2 Rate 2,[10],1.96 %/min
same,PHASE 2 t2,[10],43.00 min
same,PHASE 3 % Contraction,[10],52.91%
same,PHASE 3 Rate 3,[10],3.83 ×10^−2 %/min
same,Average Velocity,[11],0.74 %/min
same,Clot Contraction Extent,[11],73.02%
same,Lag time,[11],46.67 min
same,PHASE 1 % Contraction,[11],9.24%
same,PHASE 1 Rate 1,[11],4.00 ×10^−3 %/min
same,PHASE 1 t1,[11],26.00 min
same,PHASE 2 % Contraction,[11],20.75%
same,PHASE 2 Rate 2,[11],1.08 %/min
same,PHASE 2 t2,[11],52.00 min
same,PHASE 3 % Contraction,[11],43.03%
same,PHASE 3 Rate 3,[11],2.20 ×10^−2 %/min
same,Detection of the three phases of contraction,eptifibatide 150 μM,none of the three phases were detectible
same,Average Velocity,[12],0.67 %/min
same,Clot Contraction Extent,[12],66.08%
same,Lag time,[12],50 min
same,Effect on average velocity of contraction,eptifibatide 50 to 150 μM,dose-dependent decrease
same,Effect on extent of contraction,eptifibatide 50 to 150 μM,dose-dependent decrease
same,Increase in lag time,eptifibatide 50 to 150 μM,~4 fold

# Source: patent US20240044922A1, “DEVICE AND METHODS FOR MEASURING PLATELET-FIBRIN CLOT CONTRACTION KINETICS” (University of Kentucky Research Foundation, priority 2022, published 2024)
